Test results from patent US7638639B2, “Substituted pyrrolidine and related compounds” (Theravance, Inc., priority 2003, dated 2009).
Read-outs that look alike come from different tables or passages of the source.

Legend:
[1] = molecular target: T1, hM3 muscarinic receptor subtype (Homo sapiens, UniProt P20309); assay: Radioligand binding assay ([3H]-NMS displacement), hM3; details: for Δ hM3: change in binding affinity relative to compound of the invention: ratio of hM3 Ki values
T1 construct: expressed in transfected cells
T1 sequence (P20309 whole entry): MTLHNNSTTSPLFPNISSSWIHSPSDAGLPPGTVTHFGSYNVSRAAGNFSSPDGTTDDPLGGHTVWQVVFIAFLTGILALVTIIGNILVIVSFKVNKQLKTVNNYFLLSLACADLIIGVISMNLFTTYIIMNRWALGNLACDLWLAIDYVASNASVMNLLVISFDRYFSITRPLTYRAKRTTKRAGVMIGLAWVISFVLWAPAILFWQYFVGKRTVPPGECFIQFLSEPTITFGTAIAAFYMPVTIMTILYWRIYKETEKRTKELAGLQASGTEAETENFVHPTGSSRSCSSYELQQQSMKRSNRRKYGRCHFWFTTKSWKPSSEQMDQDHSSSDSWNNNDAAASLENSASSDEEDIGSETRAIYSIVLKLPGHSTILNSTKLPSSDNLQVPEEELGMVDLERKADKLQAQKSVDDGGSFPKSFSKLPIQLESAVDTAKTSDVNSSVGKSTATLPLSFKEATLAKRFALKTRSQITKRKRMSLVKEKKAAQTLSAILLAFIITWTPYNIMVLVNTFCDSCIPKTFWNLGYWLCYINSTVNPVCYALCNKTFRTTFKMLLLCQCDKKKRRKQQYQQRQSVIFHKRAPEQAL
Protocol: (§1) A. Membrane Preparation from Cells Expressing hM1, hM2, hM3 and hM4 Muscarinic Receptor Subtypes
(§2) CHO (Chinese hamster ovary) cell lines stably expressing cloned human hM1, hM2, hM3 and hM4 muscarinic receptor subtypes, respectively, were grown to near confluency in medium consisting of HAM's F-12 supplemented with 10% FBS (Fetal Bovine Serum) and 250 μg/mL Geneticin. The cells were grown in a 5% CO2, 37° C. incubator and lifted with 2 mm EDTA in dPBS. Cells were collected by 5 minute centrifugation at 650×g, and cell pellets were either stored frozen at −80° C. or membranes were prepared immediately. For membrane preparation, cell pellets were resuspended in lysis buffer and homogenized with a Polytron PT-2100 tissue disrupter (Kinematica AG; 20 seconds×2 bursts). Crude membranes were centrifuged at 40,000×g for 15 minutes at 4° C. The membrane pellet was then resuspended with resuspension buffer and homogenized again with the Polytron tissue disrupter. The protein concentration of the membrane suspension was determined by the method described in Lowry, O. et al., 1951, […]: 193, 265. All membranes were stored frozen in aliquots at −80° C. or used immediately. Aliquots of prepared hM5 receptor membranes were purchased directly from Perkin Elmer and stored at −80° C. until use.
(§3) B. Radioligand Binding Assay on Muscarinic Receptor Subtypes hM1, hM2, hM3, hM4 and hM5
(§4) Radioligand binding assays were performed in 96-well microtiter plates in a total assay volume of 100 μL. CHO cell membranes stably expressing either the hM1, hM2, hM3, hM4 or hM5 muscarinic subtype were diluted in assay buffer to the following specific target protein concentrations (μg/well): 10 μg for hM1, 10-15 μg for hM2, 10-20 μg for hM3, 10-20 μg for hM4, and 10-12 μg for hM5. The membranes were briefly homogenized using a Polytron tissue disruptor (10 seconds) prior to assay plate addition. Saturation binding studies for determining KD values of the radioligand were performed using L-[N-methyl-3H]scopolamine methyl chloride ([^3H]-NMS) (TRK666, 84.0 Ci/mmol, Amersham Pharmacia Biotech, Buckinghamshire, England) at concentrations ranging from 0.001 nM to 20 nM. Displacement assays for determination of Ki values of test compounds were performed with [^3H]-NMS at 1 nM and eleven different test compound concentrations. The test compounds were initially dissolved to a concentration of 400 μM in dilution buffer and then serially diluted 5× with dilution buffer to final concentrations ranging from […] to […]. The addition order and volumes to the assay plates were as follows: 25 μL radioligand, 25 μL diluted test compound, and 50 μL membranes. Assay plates were incubated for 60 minutes at 37° C. Binding reactions were terminated by rapid filtration over GF/B glass fiber filter plates (PerkinElmer Inc., Wellesley, Mass.) pre-treated in 1% BSA. Filter plates were rinsed three times with wash buffer (10 mm HEPES) to remove unbound radioactivity. Plates were then air dried, and 50 μL Microscint-20 liquid scintillation fluid (PerkinElmer Inc., Wellesley, Mass.) was added to each well. The plates were then counted in a PerkinElmer Topcount liquid scintillation counter (PerkinElmer Inc., Wellesley, Mass.). Binding data were analyzed by nonlinear regression analysis with the GraphPad Prism Software package (GraphPad Software, Inc., San Diego, Calif.) using the one-site competition model. Ki values for test compounds were calculated from observed IC50 values and the KD value of the radioligand using the Cheng-Prusoff equation (Cheng Y; Prusoff W H. (1973) Biochemical Pharmacology, 22(23):3099-108). Ki values were converted to pKi values to determine the geometric mean and 95% confidence intervals. These summary statistics were then converted back to Ki values for data reporting.

[2] = molecular target: T2, hM2 muscarinic receptor subtype (Homo sapiens, UniProt P08172); assay: Radioligand binding assay ([3H]-NMS displacement), hM2; details: for Ki: CHO cell membranes, [3H]-NMS 1 nM, read-out: hM2 binding affinity (Ki); for Δ hM2: change in binding affinity relative to compound of the invention: ratio of hM2 Ki values
T2 construct: expressed in transfected cells
T2 sequence (P08172 1-466): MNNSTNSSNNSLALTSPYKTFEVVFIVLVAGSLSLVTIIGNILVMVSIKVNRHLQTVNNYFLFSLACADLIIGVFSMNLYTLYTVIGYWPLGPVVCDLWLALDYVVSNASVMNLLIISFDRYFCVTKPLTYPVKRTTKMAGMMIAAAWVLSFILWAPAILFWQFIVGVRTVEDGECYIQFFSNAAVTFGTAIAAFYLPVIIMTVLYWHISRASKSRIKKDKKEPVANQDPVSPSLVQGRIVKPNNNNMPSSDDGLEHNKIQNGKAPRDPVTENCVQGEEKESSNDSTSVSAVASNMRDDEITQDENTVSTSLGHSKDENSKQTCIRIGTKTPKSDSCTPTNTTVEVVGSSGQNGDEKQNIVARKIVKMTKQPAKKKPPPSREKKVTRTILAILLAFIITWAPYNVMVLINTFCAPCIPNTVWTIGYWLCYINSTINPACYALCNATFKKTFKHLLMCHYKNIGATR
Protocol: as §1, §2, §3, §4

[3] = CHO cell membranes, [3H]-NMS 1 nM, read-out: hM3 binding affinity (Ki)
[4] = radioligand displacement, read-out: Ki value for hM3

| SMILES | Ki [1, 3] | Δ hM3: change in binding affinity relative to compound of the invention [1] | Ki [2] | Δ hM2: change in binding affinity relative to compound of the invention [2] | Ki [1, 4] |
| --- | --- | --- | --- | --- | --- |
| CN(C)CCCCCCCCN1CC[C@@H](C(C(N)=O)(c2ccccc2)c2ccccc2)C1 [Comp. Ex. A, 2-[(S)-1-(8-Dimethylaminooctyl)pyrrolidin-3-yl]-2,2-diphenylacetamide, reference compound] | 2.5 nM | ×52 | 18 nM | ×39 |  |
| CN(C)CCCCCCCCCN1CC[C@@H](C(C(N)=O)(c2ccccc2)c2ccccc2)C1 [Comp. Ex. B, 2-[(S)-1-(9-Dimethylaminononyl)pyrrolidin-3-yl]-2,2-diphenylacetamide, reference compound] | 25 nM |  | 120 nM |  |  |
| CC(CCCCCCCN1CC[C@@H](C(C(N)=O)(c2ccccc2)c2ccccc2)C1)N(C)CCO (stereo partly drawn) [Comp. Ex. C, 2-{(S)-1-[8-N-(2-Hydroxyethyl)-N-methylaminononyl]pyrrolidin-3-yl}-2,2-diphenylacetamide, reference compound] | 73 nM |  | 83 nM |  |  |
| NCCCCCCCCN1CC[C@@H](C(C(N)=O)(c2ccccc2)c2ccccc2)C1 [Comp. Ex. D, 2-[(S)-1-(8-Aminooctyl)pyrrolidin-3-yl]-2,2-diphenylacetamide, reference compound] | 50 nM |  | 150 nM |  |  |
| NC(=O)C(c1ccccc1)(c1ccccc1)[C@@H]1CCN(CCCCCCCCNCCO)C1 [Example 8, 2-{(S)-1-[8-(2-Hydroxyethyl)aminooctyl]pyrrolidin-3-yl}-2,2-diphenylacetamide] | 5.1 nM | ×14 | 13 nM | ×6.3 |  |
| CNCCCCCCCCCN1CC[C@@H](C(C(N)=O)(c2ccccc2)c2ccccc2)C1 [Example 14, 2-[(S)-1-(9-Methylaminnonyl)pyrrolidin-3-yl]-2,2-diphenylacetamide] | 0.66 nM | ×37 | 1.7 nM | ×70 | < 50 nM |
| NC(=O)C(c1ccccc1)(c1ccccc1)[C@@H]1CCN(CCCCCCCCCNCc2ccccc2)C1 [Example 26, 2-[(S)-1-(9-Benzylaminononyl)pyrrolidin-3-yl]-2,2-diphenylacetamide] |  |  |  |  | < 50 nM |
| CNCCCCCCCCN1CC[C@H](C(C(N)=O)(c2ccccc2)c2ccccc2)C1 [Example 27, 2-[(R)-1-(8-Methylaminooctyl)pyrrolidin-3-yl]-2,2-diphenylacetamide] |  |  |  |  | < 50 nM |
| NC(=O)C(c1ccccc1)(c1ccccc1)[C@H]1CCN(CCCCCCCCNCc2ccccc2)C1 [Example 39, 2-[(R)-1-(8-Benzylaminooctyl)pyrrolidin-3-yl]-2,2-diphenylacetamide] |  |  |  |  | < 50 nM |
